# According to US6303797A, “Sesterterpene derivatives exhibiting antifungal activities” (Banyu Pharmaceutical Co., Ltd., priority 1998, dated 2001):
# Test system: Trichosporon cutaneum IFO 1189
# Test: Antifungal activity, minimum growth inhibition concentration (MIC), agar plate dilution method
# Format: cell-based
# Details: Cutaneotrichosporon cutaneum, IFO1189, 48 h; agar plate dilution method, Trichosporon cutaneum IFO 1189, culture at 37° C. for 2 days, yeast-nitrogen base with 1% glucose
row,SMILES,MIC
1,"C=C1C2CC3C(C(C)C)C(OC(=O)C(O)CCCC)CC3(C)CC2C(C)=CCC2C(C)OC(=O)C(O)C12O (stereo not shown) [Compound 14, 1,13a-dihydroxy-11-isopropyl-4,7,8a-trimethyl-13-methylene-2-oxo-1,2,4,4a,5,7a,8,8a,9,10,11,11a,12,12a,13,13a-hexadecahydroindeno[5',6':4,5]cycloocta[1,2-c]pyran-10-yl 2-hydroxyhexanoate]",12.5 µg/mL
2,"C=C1C2CC3C(C(C)C)C(OC(=O)c4ccc(F)cc4)CC3(C)CC2C(C)=CCC2C(C)OC(=O)C(O)C12O (stereo not shown) [Compound 23, 1,13a-dihydroxy-11-isopropyl-4,7,8a-trimethyl-13-methylene-2-oxo-1,2,4,4a,5,7a,8,8a,9,10,11,11a,12,12a,13,13a-hexadecahydroindeno[5',6':4,5]cycloocta[1,2-c]pyran-10-yl 4-fluorobenzoate]",12.5 µg/mL
3,"C=C1C2CC3C(C(C)C)C(OS(=O)(=O)/C=C/c4ccccc4)CC3(C)CC2C(C)=CCC2C(C)OC(=O)C(O)C12O (stereo not shown) [Compound 31, 1,13a-dihydroxy-11-isopropyl-4,7,8a-trimethyl-13-methylene-2-oxo-1,2,4,4a,5,7a,8,8a,9,10,11,11a,12,12a,13,13a-hexadecahydroindeno[5',6':4,5]cycloocta[1,2-c]pyran-10-yl (E)-2-phenyl-1-ethene-1sulfonate]",12.5 µg/mL
4,"C=C1C2CC3C(C(C)C)C(OC(=O)NCC)CC3(C)CC2C(C)=CCC2C(C)OC(=O)C(O)C12O (stereo not shown) [Compound 33, 1,13a-dihydroxy-11-isopropyl-4,7,8a-trimethyl-13-methylene-2-oxo-1,2,4,4a,5,7a,8,8a,9,10,11,11a,12,12a,13,13a-hexadecahydroindeno[5',6':4,5]cycloocta[1,2-c]pyran-10-yl N-ethylcarbamate]",6.25 µg/mL
5,"C=C1C2CC3C(C(C)C)C(OC(=O)NCc4ccccc4)CC3(C)CC2C(C)=CCC2C(C)OC(=O)C(O)C12O (stereo not shown) [Compound 40, 1,13a-dihydroxy-11-isopropyl-4,7,8a-trimethyl-13-methylene-2-oxo-1,2,4,4a,5,7a,8,8a,9,10,11,11a,12,12a,13,13a-hexadecahydroindeno[5',6':4,5]cycloocta[1,2-c]pyran-10-yl N-benzylcarbamate]",6.25 µg/mL
6,"C=C1C2CC3C(C(C)C)C(OC(=O)NC4CCCCO4)CC3(C)CC2C(C)=CCC2C(C)OC(=O)C(O)C12O (stereo not shown) [Compound 42, 1,13a-dihydroxy-11-isopropyl-4,7,8a-trimethyl-13-methylene-2-oxo-1,2,4,4a,5,7a,8,8a,9,10,11,11a,12,12a,13,13a-hexadecahydroindeno[5',6':4,5]cycloocta[1,2-c]pyran-10-yl N-tetrahydro-2H-pyran-2-ylcarbamate]",12.5 µg/mL
7,"C=C1C2CC3C(C(C)C)C(OC(=O)NC4CCCCC4)CC3(C)CC2C(C)=CCC2C(C)OC(=O)C(O)C12O (stereo not shown) [Compound 46, 1,13a-dihydroxy-11-isopropyl-4,7,8a-trimethyl-13-methylene-2-oxo-1,2,4,4a,5,7a,8,8a,9,10,11,11a,12,12a,13,13a-hexadecahydroindeno[5',6':4,5]cycloocta[1,2-c]pyran-10-yl N-cyclohexylcarbamate]",12.5 µg/mL
8,"C=C1C2CC3C(C(C)C)C(NC(=O)CC(C)(O)CC(C)CC)CC3(C)CC2C(C)=CCC2C(C)OC(=O)C(O)C12O (stereo not shown) [Compound 54, N'-(1,13a-dihydroxy-11-isopropyl-4,7,8a-trimethyl-13-methylene-2-oxo-1,2,4,4a,5,7a,8,8a,9,10,11,11a,12,12a,13,13a-hexadecahydroindeno[5',6': 4,5]cycloocta [1,2-c]pyran-10-yl)-3-hydroxy-3,5-dimethylheptanamide]",12.5 µg/mL
9,"C=C1C2CC3C(C(C)C)C(NC(=O)Cc4csc5ccccc45)CC3(C)CC2C(C)=CCC2C(C)OC(=O)C(O)C12O (stereo not shown) [Compound 64, N'-(1,13a-dihydroxy-11-isopropyl-4,7,8a-trimethyl-13-methylene-2-oxo-1,2,4,4a,5,7a,8,8a,9,10,11,11a,12,12a,13,13a-hexadecahydroindeno[5',6': 4,5]cycloocta[1,2-c]pyran-10-yl)-3-benzo[b]thienylacetamide]",6.25 µg/mL
10,"C=C1C2CC3C(C(C)C)C(NC(=O)Cc4ccc(Cl)cc4)CC3(C)CC2C(C)=CCC2C(C)OC(=O)C(O)C12O (stereo not shown) [Compound 65, N'-(1,13a-dihydroxy-11-isopropyl-4,7,8a-trimethyl-13-methylene-2-oxo-1,2,4,4a,5,7a,8,8a,9,10,11,11a,12,12a,13,13a-hexadecahydroindeno[5',6': 4,5]cycloocta[1,2-c]pyran-10-yl)-4-chlorophenylacetamide]",6.25 µg/mL
11,"C[C@@H]1[C@H](O)[C@@H](C)/C=C/C=C/C=C/C=C/C=C/C=C/C=C/[C@H](O[C@@H]2O[C@H](C)[C@@H](O)[C@H](N)[C@@H]2O)C[C@@H]2O[C@](O)(C[C@@H](O)C[C@@H](O)[C@H](O)CC[C@@H](O)C[C@@H](O)CC(=O)O[C@H]1C)C[C@H](O)[C@H]2C(=O)O [amphotericin B, reference compound]",≥ 100 µg/mL

# Other lines, results leading:
row,MIC,SMILES
1,6.25 µg/mL,"C=C1C2CC3C(C(C)C)C(OC(=O)CCC)CC3(C)CC2C(C)=CCC2C(C)OC(=O)C(O)C12O (stereo not shown) [Compound 5, 1,13a-dihydroxy-11-isopropyl-4,7,8a-trimethyl-13-methylene-2-oxo-1,2,4,4a,5,7a,8,8a,9,10,11,11a,12,12a,13,13a-hexadecahydroindeno[5',6':4,5]cycloocta[1,2-c]pyran-10-yl butanoate]"
2,6.25 µg/mL,"C=C1C2CC3C(C(C)C)C(OC(=O)CC(C)C)CC3(C)CC2C(C)=CCC2C(C)OC(=O)C(O)C12O (stereo not shown) [Compound 9, 1,13a-dihydroxy-11-isopropyl-4,7,8a-trimethyl-13-methylene-2-oxo-1,2,4,4a,5,7a,8,8a,9,10,11,11a,12,12a,13,13a-hexadecahydroindeno[5',6':4,5]cycloocta[1,2-c]pyran-10-yl 3-methylbutanoate]"
3,3.13 µg/mL,"C=C1C2CC3C(C(C)C)C(OC(=O)c4ccc(Cl)nc4)CC3(C)CC2C(C)=CCC2C(C)OC(=O)C(O)C12O (stereo not shown) [Compound 26, 1,13a-dihydroxy-11-isopropyl-4,7,8a-trimethyl-13-methylene-2-oxo-1,2,4,4a,5,7a,8,8a,9,10,11,11a,12,12a,13,13a-hexadecahydroindeno[5',6':4,5]cycloocta[1,2-c]pyran-10-yl 6-chloronicotinate]"
4,6.25 µg/mL,"C=C1C2CC3C(C(C)C)C(OS(=O)(=O)CCCC)CC3(C)CC2C(C)=CCC2C(C)OC(=O)C(O)C12O (stereo not shown) [Compound 32, 1,13a-dihydroxy-11-isopropyl-4,7,8a-trimethyl-13-methylene-2-oxo-1,2,4,4a,5,7a,8,8a,9,10,11,11a,12,12a,13,13a-hexadecahydroindeno[5',6':4,5]cycloocta[1,2-c]pyran-10-yl 1butanesulfonate]"
5,3.13 µg/mL,"C=C1C2CC3C(C(C)C)C(OC(=O)Nc4ccc(F)cc4)CC3(C)CC2C(C)=CCC2C(C)OC(=O)C(O)C12O (stereo not shown) [Compound 39, 1,13a-dihydroxy-11-isopropyl-4,7,8a-trimethyl-13-methylene-2-oxo-1,2,4,4a,5,7a,8,8a,9,10,11,11a,12,12a,13,13a-hexadecahydroindeno[5',6':4,5]cycloocta[1,2-c]pyran-10-yl N-(4-fluorophenyl)carbamate]"
6,3.13 µg/mL,"C=C1C2CC3C(C(C)C)C(OC(=O)Nc4ccccc4)CC3(C)CC2C(C)=CCC2C(C)OC(=O)C(O)C12O (stereo not shown) [Compound 43, 1,13a-dihydroxy-11-isopropyl-4,7,8a-trimethyl-13-methylene-2-oxo-1,2,4,4a,5,7a,8,8a,9,11a,12,12a,13,13a-hexadecahydroindeno[5',6':4,5]cycloocta [1,2-c]pyran-10-yl N-phenylcarbamate]"

# Same assay, conditions: agar plate dilution method, Trichosporon cutaneum IFO 1189, culture at 37° C. for 2 days, yeast-nitrogen base with 1% glucose
row,MIC (minimum growth inhibition concentration),SMILES
1,≥ 100 µg/mL,"C=C1C2CC3C(C(C)C)C(OC(=O)CC(C)(O)CC(C)CC)CC3(C)CC2C(C)=CCC2C(C)OC(=O)C(O)C12O (stereo not shown) [BE-49385 A, reference compound]"

# Same assay, conditions: fungi against which BE-49385 A does not show an antifungal activity
row,SMILES,antifungal activity (in words)
1,"C=C1C2CC3C(C(C)C)C(OC(=O)CC(C)(O)CC(C)CC)CC3(C)CC2C(C)=CCC2C(C)OC(=O)C(O)C12O (stereo not shown) [BE-49385 A, reference compound]",does not show an antifungal activity
